Read-outs that look alike come from different tables or passages of the source.
Legend:
Type in all cases: in vivo
[1] = tested on: Myzus persicae (Green Peach Aphid); assay: Myzus persicae (green peach aphid), feeding/contact activity, mortality; settings: 144 h, application rate 200 ppm, aphid population of mixed ages, 6 days after infestation
Method: Myzus persicae (Green Peach Aphid): Feeding/Contact Activity
Sunflower leaf discs were placed onto agar in a 24-well microtiter plate and sprayed with aqueous test solutions prepared from 10′000 ppm DMSO stock solutions. After drying, the leaf discs were infested with an aphid population of mixed ages. The samples were assessed for mortality 6 days after infestation.

[2] = tested on: Spodoptera littoralis (Egyptian Cotton Leaf Worm); assay: Spodoptera littoralis (Egyptian cotton leaf worm), feeding/contact activity, mortality; settings: 72 h
Method: Spodoptera littoralis (Egyptian Cotton Leaf Worm): Feeding/Contact Activity
Cotton leaf discs were placed onto agar in 24-well microtiter plates and sprayed with aqueous test solutions prepared from 10′000 ppm DMSO stock solutions. After drying the leaf discs were infested with five L1 larvae. The samples were assessed for mortality 3 days after infestation.

[3] = tested on: Tetranychus urticae (Two-Spotted Spider Mite); assay: Tetranychus urticae (two-spotted spider mite), feeding/contact activity, mortality; settings: 192 h, application rate 200 ppm, mixed population (mobile stages), 8 days after infestation
Method: Tetranychus urticae (Two-Spotted Spider Mite): Feeding/Contact Activity
Bean leaf discs on agar in 24-well microtiter plates were sprayed with aqueous test solutions prepared from 10′000 ppm DMSO stock solutions. After drying the leaf discs were infested with a mite population of mixed ages. The samples were assessed for mortality on mixed population (mobile stages) 8 days after infestation.

[4] = tested on: Diabrotica balteata (Corn Root Worm); assay: Diabrotica balteata (corn root worm), sprayed maize sprouts on agar, mortality; settings: 96 h
Method: Diabrotica balteata (Corn Root Worm):
Maize sprouts placed onto an agar layer in 24-well microtiter plates were treated with aqueous test solutions prepared from 10′000 ppm DMSO stock solutions by spraying. After drying, the plates were infested with L2 larvae (6 to 10 per well). The samples were assessed for mortality 4 days after infestation.

[5] = tested on: Euschistus heros (Neotropical Brown Stink Bug); assay: Euschistus heros (neotropical brown stink bug), feeding/contact activity, mortality; settings: 120 h
Method: Euschistus heros (Neotropical Brown Stink Bug): Feeding/contact activity
Soybean leaves on agar in 24-well microtiter plates were sprayed with aqueous test solutions prepared from 10′000 ppm DMSO stock solutions. After drying the leaves were infested with N2 nymphs. The samples were assessed for mortality 5 days after infestation.

[6] = tested on: Plutella xylostella (Diamond Back Moth); assay: Plutella xylostella (diamond back moth), feeding/contact activity on artificial diet, mortality; settings: 120 h
Method: Plutella xylostella (Diamond Back Moth): Feeding/Contact Activity
24-well microtiter plates with artificial diet were treated with aqueous test solutions prepared from 10′000 ppm DMSO stock solutions by pipetting. After drying, the plates were infested with L2 larvae (10 to 15 per well). The samples were assessed for mortality 5 days after infestation.

[7] = tested on: Thrips tabaci (Onion Thrips); assay: Thrips tabaci (onion thrips), feeding/contact activity, mortality; settings: 144 h
Method: Thrips tabaci (Onion Thrips): Feeding/Contact Activity
Sunflower leaf discs were placed on agar in 24-well microtiter plates and sprayed with aqueous test solutions prepared from 10′000 ppm DMSO stock solutions. After drying the leaf discs were infested with a thrips population of mixed ages. The samples were assessed for mortality 6 days after infestation.

[8] = application rate 200 ppm, L1 larvae, 3 days after infestation, read-out: mortality
[9] = application rate 200 ppm, L2 larvae, 4 days after infestation, read-out: mortality
[10] = application rate 200 ppm, N2 nymphs, 5 days after infestation, read-out: mortality
[11] = application rate 200 ppm, L2 larvae on artificial diet, 5 days after infestation, read-out: mortality
[12] = application rate 200 ppm, thrips population of mixed ages, 6 days after infestation, read-out: mortality

Measured: mortality at 200 ppm

Cn1nc(C(F)(F)C(F)(F)F)c(OC(F)F)c1-n1cc(-c2ccc(Cl)c(C(=O)NC3(C#N)CC3)c2)cn1 [Compound 1, 2-chloro-N-(1-cyanocyclopropyl)-5-[1-[4-(difluoromethoxy)-2-methyl-5-(1,1,2,2,2-pentafluoroethyl)pyrazol-3-yl]pyrazol-4-yl]benzamide]
≥ 80%: [1] | [2]; [8] | [3] | [4]; [9] | [5]; [10] | [6]; [11]

Cn1nc(C(F)(F)C(F)(F)F)c(OC(F)F)c1-n1cc(-c2ccc(Cl)c(C(=O)NC3CC3)c2)cn1 [Compound 2, 2-Chloro-N-cyclopropyl-5-[1-[4-(difluoromethoxy)-2-methyl-5-(1,1,2,2,2-pentafluoroethyl)-pyrazol-3-yl]pyrazol-4-yl]benzamide]
≥ 80%: [1] | [2]; [8] | [3] | [4]; [9] | [5]; [10] | [6]; [11]

COc1c(C(F)(F)C(F)(F)F)nn(C)c1-n1cc(-c2ccc(Cl)c(C(=O)NC3CC3)c2)cn1 [Compound 6]
≥ 80%: [2]; [8] | [3] | [7]; [12] | [4]; [9] | [5]; [10] | [6]; [11]

C=Cc1c(C(F)(F)C(F)(F)F)nn(C)c1-n1cc(-c2ccc(Cl)c(C(=O)NC3(C#N)CC3)c2)cn1 [Compound 15, 2-Chloro-N-(1-cyanocyclopropyl)-5-[1-[2-methyl-5-(1,1,2,2,2-pentafluoroethyl)-4-vinyl-pyrazol-3-yl]pyrazol-4-yl]benzamide]
≥ 80%: [1] | [2]; [8] | [3] | [4]; [9] | [5]; [10] | [6]; [11]

C#Cc1c(C(F)(F)C(F)(F)F)nn(C)c1-n1cc(-c2ccc(Cl)c(C(=O)NC3(C#N)CC3)c2)cn1 [Compound 17]
≥ 80%: [1] | [3] | [4]; [9] | [5]; [10] | [6]; [11]

C#Cc1c(C(F)(F)C(F)(F)F)nn(C)c1-n1cc(-c2ccc(Cl)c(C(=O)NC3CC3)c2)cn1 [Compound 18]
≥ 80%: [2]; [8]

Cn1nc(C(F)(F)C(F)(F)F)c(S(=O)(=O)C2CC2)c1-n1cc(-c2ccc(Cl)c(C(=O)NC3CC3)c2)cn1 [Compound 33]
≥ 80%: [2]; [8] | [3] | [7]; [12] | [4]; [9] | [5]; [10] | [6]; [11]

Cn1nc(C(F)(F)C(F)(F)F)c(S(=O)(=O)C2CC2)c1-n1cc(-c2ccc(Cl)c(C(=O)NC3(C#N)CC3)c2)cn1 [Compound 35]
≥ 80%: [2]; [8] | [3] | [7]; [12] | [4]; [9] | [5]; [10] | [6]; [11]

Cn1nc(C(F)(F)C(F)(F)F)c(OC(F)(F)C(F)F)c1-n1cc(-c2ccc(Cl)c(C(=O)NC3(C#N)CC3)c2)cn1 [Compound 37]
≥ 80%: [2]; [8] | [3] | [7]; [12] | [4]; [9] | [5]; [10] | [6]; [11]

CCOc1c(C(F)(F)C(F)(F)F)nn(C)c1-n1cc(-c2ccc(Cl)c(C(=O)NC3(C#N)CC3)c2)cn1 [Compound 38]
≥ 80%: [2]; [8] | [3] | [4]; [9] | [5]; [10] | [6]; [11]

Cn1nc(C(F)(F)C(F)(F)F)c(OCC(F)F)c1-n1cc(-c2ccc(Cl)c(C(=O)NC3(C#N)CC3)c2)cn1 [Compound 39]
≥ 80%: [2]; [8] | [3] | [4]; [9] | [5]; [10] | [6]; [11]

Cn1nc(C(F)(F)C(F)(F)F)c(OC(F)(F)C(F)(F)C(F)(F)F)c1-n1cc(-c2ccc(Cl)c(C(=O)NC3(C#N)CC3)c2)cn1 [Compound 40]
≥ 80%: [2] | [7] | [4] | [5] | [6]

Cn1nc(C(F)(F)C(F)(F)F)c(OC(F)(F)C(F)C(F)(F)F)c1-n1cc(-c2ccc(Cl)c(C(=O)NC3(C#N)CC3)c2)cn1 (stereo not drawn) [Compound 43]
≥ 80%: [2]; [8] | [7]; [12] | [4]; [9] | [6]; [11]

Cn1nc(C(F)(F)C(F)(F)F)c(OCC(F)F)c1-n1cc(-c2ccc(Cl)c(C(=O)NC3CC3)c2)cn1 [Compound 44]
≥ 80%: [2]; [8] | [3] | [4]; [9] | [6]; [11]

Cn1nc(C(F)(F)C(F)(F)F)c(OC(F)(F)C(F)(F)C(F)(F)F)c1-n1cc(-c2ccc(Cl)c(C(=O)NC3CC3)c2)cn1 [Compound 45]
≥ 80%: [2] | [7] | [4] | [6]

Cn1nc(C(F)(F)C(F)(F)F)c(OC(F)(F)C(F)C(F)(F)F)c1-n1cc(-c2ccc(Cl)c(C(=O)NC3CC3)c2)cn1 (stereo not drawn) [Compound 46]
≥ 80%: [2]; [8] | [7]; [12] | [4]; [9] | [6]; [11]

Cn1nc(C(F)(F)C(F)(F)F)c(OC(F)F)c1-n1cc(-c2cc(C(=O)NC3CC3)c(Cl)cc2F)cn1 [Compound 47]
≥ 80%: [6]; [11]

Cn1nc(C(F)(F)C(F)(F)F)c(OC(F)(F)C(F)C(F)(F)F)c1-n1cc(-c2ccc(Cl)c(C(=O)NCc3ccccc3)c2)cn1 (stereo not drawn) [Compound 57]
≥ 80%: [1]

CCN(C(=O)c1cc(-c2cnn(-c3c(OC(F)F)c(C(F)(F)C(F)(F)F)nn3C)c2)ccc1C#N)C1CC1 [Compound 58]
≥ 80%: [4]; [9]

CN(C(=O)c1cc(-c2cnn(-c3c(OC(F)F)c(C(F)(F)C(F)(F)F)nn3C)c2)ccc1C#N)C1CC1 [Compound 59]
≥ 80%: [4]; [9]

CN(C(=O)c1cc(-c2cnn(-c3c(OC(F)F)c(C(F)(F)C(F)(F)F)nn3C)c2)ccc1C#N)C1(C#N)CC1 [Compound 61]
≥ 80%: [4]; [9]

Cn1nc(C(F)(F)C(F)(F)F)c(OC(F)F)c1-n1cc(-c2ccc(C#N)c(C(=O)NC3CC3)c2)cn1 [Compound 62]
≥ 80%: [4]; [9]

Cn1nc(C(F)(F)C(F)(F)F)c(OC(F)F)c1-n1cc(-c2ccc(Cl)c(C(=O)NC3(C#N)CC3)c2)nn1 [Compound 64, 2-Chloro-N-(1-cyanocyclopropyl)-5-[1-[4-(difluoromethoxy)-2-methyl-5-(1,1,2,2,2-pentafluoroethyl)pyrazol-3-yl]triazol-4-yl]benzamide]
≥ 80%: [4]; [9]

Cn1nc(C(F)(F)C(F)(F)F)c(OC(F)F)c1-n1cc(-c2ccc(Cl)c(C(=O)NC3CC3)c2)nn1 [Compound 65]
≥ 80%: [4]; [9]
